What was measured:
[1] = Selectivity index, ratio of IC50 for inhibition of CDK1 (unknown origin) to IC50 for inhibition of CDK9 (unknown origin)
[2] = Selectivity index, ratio of IC50 for inhibition of CDK2 (unknown origin) to IC50 for inhibition of CDK9 (unknown origin)
MV4-11 [3] = assay: Antiproliferative activity against human MV4-11 cells assessed as cell viability; format: functional, cell-based
[4] = AUC (0 to 24 hrs) in CD-1 mouse at 2 mg/kg, iv; format: ADME, organism-based; settings: mouse, in vivo, iv, 2 mg/kg
[5] = molecular target: Cyclin-dependent kinase 1 (Homo sapiens, UniProt P06493); assay: Inhibition of CDK1 (unknown origin)
Chain of Cyclin-dependent kinase 1 (P06493 whole entry): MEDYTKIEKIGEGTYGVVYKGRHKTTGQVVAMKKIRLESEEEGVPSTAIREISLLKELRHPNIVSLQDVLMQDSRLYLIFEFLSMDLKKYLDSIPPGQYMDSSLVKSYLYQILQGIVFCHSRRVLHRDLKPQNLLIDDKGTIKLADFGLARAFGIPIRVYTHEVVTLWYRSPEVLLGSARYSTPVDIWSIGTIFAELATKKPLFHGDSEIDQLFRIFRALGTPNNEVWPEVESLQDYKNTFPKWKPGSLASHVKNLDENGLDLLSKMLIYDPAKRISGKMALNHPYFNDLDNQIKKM

[6] = molecular target: Cyclin-dependent kinase 2 (Homo sapiens, UniProt P24941); assay: Inhibition of CDK2 (unknown origin)
MV4-11 [7] = assay: Antitumor activity against human MV4-11 cells xenografted in mouse assessed as tumor growth inhibition at 10 mg/kg, iv measured upto 28 days; format: functional; settings: MV4-11, 672 h, time <= 28 day, read-out: TGI
[8] = Volume of distribution in CD-1 mouse at 2 mg/kg, iv; format: ADME, organism-based; settings: mouse, in vivo, iv, 2 mg/kg
[9] = Toxicity in mouse assessed as change in body weight at 10 mg/kg, iv measured upto 28 days; format: organism-based; settings: in vivo, 672 h, time < 28 day
[10] = Half life in CD-1 mouse at 2 mg/kg, iv; format: ADME, organism-based; settings: mouse, in vivo, iv, 2 mg/kg

Structure (SMILES)	Ratio IC50 [1]	Ratio IC50 [2]	IC50 (MV4-11 [3]) [nM]	AUC [4] [µM·h]	IC50 [5] [nM]	IC50 [6] [nM]	inhibition in vivo at 10 mg/kg (MV4-11 [7]) [%]	Vd [8] [L/kg]	Activity [9]	t1/2 [10] [min]
CN1CCC(c2cc3c(-c4cnn(CC5CC5)c4)c(Cl)cnc3[nH]2)CC1	35.9	11.2	35.7	–	–	–	–	–	–	–
COCCN1CCC(c2cc3c(-c4cnn(CC5CC5)c4)c(Cl)cnc3[nH]2)CC1	146	22.1	63.8	–	–	–	–	–	–	–
COc1cc(F)ccc1-c1cc(Nc2cc(CS(C)(=N)=O)ccn2)ncc1F (centres undefined) [ENITOCICLIB]	–	–	92.4	2.686	250	231	65	1.27	Non-toxic	26.4

— ChEMBL document CHEMBL6092142, “Discovery and preclinical profile of YK-2168, a differentiated selective CDK9 inhibitor in clinical development” (Bioorg Med Chem Lett, 2024)
